Data set [1] in a line: Stability of the N-glycosidic bond under acidic conditions, UV-absorbance as a function of time (Example 30). The settings on record: for half-life: read-out: half life [t(1/2)] of hydrolysis. In kind it is physicochemical. Set-up: key to stability towards hydrolysis (classified): classified as stable, when no hydrolysis occurred within the hydrolysis time of the corresponding purine-derivatives. How it is done: The determination of the stability of the N-glycosidic bond was carried out under acidic conditions by measuring the UV-absorbance as a function of time. The compounds were classified as stable, when no hydrolysis occurred within the hydrolysis time of the corresponding purine-derivatives.
Table of kinetic data with respect to hydrolysis of […]

Data set [2] is described as follows: Hydrolysis of the N-glycosidic bond in hydrochloric acid at 25° C., UV absorption at 258 nm (Example 29). In kind it is physicochemical. Conditions: for half-life: read-out: half life time T/2 of hydrolysis. As to the method: The stability of the N-glycosidic bond of 2',3'-didesoxynucleosides is bound up with the antiviral activity.
The hydrolysis of the bond was investigated at 25° C. in three different concentrations of hydrochloric acid. For this purpose, the UV absorption (Et) was measured at 258 nm. Via the absorption/time curve, there were determined the velocity constants of the hydrolysis (k) and the half life times (T/2) on the basis of the following equation:
k=1/t×ln(Eo -Eoo)/(Et -Eoo)
Eo being the absorption at time t=0 and Eoo being the absorption after complete termination of the reaction.
There were compared 2',3'-dideoxyadenosine (a) and 6-amino-8-aza-7-deaza-2',3'-dideoxy-9-β-D-ribofuranosylpurine (b) at 25° C.

Regarding `Nc1nccc2c1ccn2[C@H]1CC[C@@H](CO)O1` [c^3 c^7 ddA, 6-amino-3,7-dideaza-2',3'-dideoxy-9-β-D-ribofuranosylpurine], the “stability towards hydrolysis (classified)” value (“stability towards hydrolysis” below) in data set [1] (0.01 N HCl), in data set [1] (0.1 N HCl) and in data set [1] (1 N HCl) was “stable” each time.
In the case of `Nc1ncnc2c1ccn2[C@H]1CC[C@@H](CO)O1` [c^7 ddA, 4-Amino-7-(2',3'-dideoxy-β-D-glyceropentofuranosyl)-7H-pyrrolo[2,3-d]pyrimidine], the “stability towards hydrolysis” value in data set [1] (0.01 N HCl), in data set [1] (0.1 N HCl) and in data set [1] (1 N HCl) was “stable” in each case.
On to `Nc1nc2c(ccn2[C@H]2CC[C@@H](CO)O2)c(=O)[nH]1` [c^7 ddG, 2-Amino-7-deaza-2',3'-dideoxy-9-β-D-ribofuranosylpurine-6-one], for which the “stability towards hydrolysis” value in data set [1] (0.01 N HCl), in data set [1] (0.1 N HCl) and in data set [1] (1 N HCl) was “stable” throughout.
For the compound `Nc1ncnc2c1cnn2[C@H]1CC[C@@H](CO)O1` [c^7 z^8 ddA, 6-Amino-8-aza-7-deaza-2',3'-dideoxy-9-β-D-ribofuranosylpurine], the half-life in data set [1] (0.01 n hcl) was determined as 280 min; in data set [1] (0.1 n hcl), 20.4 min; in data set [2] (0.01 N HCl), 280 min; in data set [2] (0.1 N HCl), 20.4 min; in data set [2] (1 N HCl), 0.83 min. In data set [2] (0.01 N HCl), the “velocity constant of the hydrolysis k” value turned out to be 0.0025 min⁻¹. Moreover, the “times more stable than (a)” value in data set [2] (compared with 2',3'-dideoxyadenosine (a), HCl) is listed as “more than 10 times”.
In the case of `Nc1nc2c(cnn2[C@H]2CC[C@@H](CO)O2)c(=O)[nH]1` [c^7 z^8 ddG, 2-Amino-(2',3'-dideoxy-β-D-glyceropentofuranosyl)-1H-pyrazolo[3,4-d]pyrimidin-4-one], in data set [1] (0.01 n hcl), the half-life stood at 135 min.
`Nc1ncnc2c1ncn2[C@H]1CC[C@@H](CO)O1` [ddA, 2',3'-dideoxyadenosine, reference compound]: the half-life in data set [1] (0.01 n hcl) was 31.5 min; in data set [1] (0.1 n hcl) it was 1.9 min; in data set [2] (0.01 N HCl), 31.5 min; in data set [2] (0.1 N HCl) it was 1.9 min. Moreover, the “velocity constant of the hydrolysis k” value in data set [2] (0.01 N HCl) worked out at 0.022 min⁻¹.
Regarding `Nc1nc2c(ncn2[C@H]2CC[C@@H](CO)O2)c(=O)[nH]1` [ddG, reference compound], the half-life in data set [1] (0.01 n hcl) came to 37 min.

These data come from US6211158A, “Desazapurine-nucleotide derivatives, processes for the preparation thereof, pharmaceutical compositions containing them and the use thereof for nucleic acid sequencing and as antiviral agents” (Roche Diagnostics GmbH, priority 1987, dated 2001).
